Data as given in patent US11351165B2, “Agent that increases the expression of the opioid kappa 1 for the treatment of cancer” (LDN Pharma Limited, priority 2017, dated 2022).

Experiments:
Assay type in all cases: cell-based
[1] = test system: OPRK1; assay: Level of expression of OPRK1 by immunoblotting in A549 cells; details: A549 lung cancer cells, 1 nM to 10 μM for 48 h
Method: (§1) In order to determine the effect of 6-β-naltrexol or naltrexone on the level of expression of OPRK1, A549 lung cancer or HCT116 colon cancer cells were seeded onto 6-well plates at a density of 2×10^5 cell/well, and allowed to adhere overnight. Cells were then cultured in the presence of naltrexone or 6-β-naltrexol at concentrations of 1 nM, 10 nM, 100 nM, 1 μM or 10 μM for a further 48 h. Cells were then harvested and processed for measurements of OPRK1, opioid receptor-μ1 (OPRM1) and GAPDH using standard immunoblotting techniques.

[2] = test system: OPRK1; assay: Level of expression of OPRK1 by immunoblotting in HCT116 cells; details: HCT116 colon cancer cells, 1 nM to 10 μM for 48 h
Method: as §1

[3] = test system: A549 cells; assay: Priming with 6-β-naltrexol, then chemotherapy agent; cell number and viability by trypan blue counting, A549; details: FIG. 2c
Method: (§2) The impact of combining 6-β-naltrexol with other chemotherapy agents was tested by culturing cells according to a treatment schedule that involved two phases of treatment. The first phase involved priming with 10 nM 6-β-naltrexol or 10 μM 6-β-naltrexol for 48 h, before treatment with another drug for a further 48 h. A549 and HCT116 cells were seeded into 6-well plates at a density of 2×10^5 cells/well and left to adhere overnight. Media was removed after 48 h, and cells were rinsed gently with drug-free medium. Fresh culture medium that contained gemcitabine (GEM) or oxaliplatin (OXP) was then added to the cells. The concentrations of the chemotherapy agents used were approximately ¼ IC50, as established previously [Liu W M, Fowler D W, Smith P, Dalgleish A G. Pre-treatment with chemotherapy can enhance the antigenicity and immunogenicity of tumours by promoting adaptive immune responses. Br J Cancer. 2010 Jan. 5; 102(1):115-23. doi: 10.1038/sj.bjc.6605465.]. Cells were then left for a further 48 h before assessment of cell number of viability by cell counting using trypan blue dye as a way of discriminating live and dead cells. Cytostasis was indicated by a reduction in cell number and no associated reduction in cell viability.

[4] = test system: HCT116 cells; assay: Priming with 6-β-naltrexol, then chemotherapy agent; cell number and viability by trypan blue counting, HCT116; details: FIG. 2d
Method: as §2

[5] = 10 nM or 10 μM 6-β-naltrexol 48 h, then gemcitabine or oxaliplatin at approx. 1/4 IC50 for 48 h
[6] = 10 nM or 10 μM 6-β-naltrexol alone (6BN-0)

| Compound | level of expression of OPRK1 [1] | level of expression of OPRK1 [2] | cytotoxic effect of chemotherapeutic agents after priming [3, 5] | cytotoxicity of the agent alone [3, 6] | cytotoxic effect of chemotherapeutic agents after priming [4, 5] | cytotoxicity of the agent alone [4, 6] |
| --- | --- | --- | --- | --- | --- | --- |
| Oc1ccc2c3c1OC1[C@H](O)CC[C@@]4(O)[C@@H](C2)N(CC2CC2)CC[C@]314 (stereo partly drawn) [6-β-naltrexol, 17-(Cyclopropylmethyl)-4,5-epoxymorphinan-3,6 beta,14-triol] | increase the level of expression of ORPK1 | increases the level of expression of OPRK1 | cytotoxic effect of both chemotherapeutic agents is increased | absence of any independent increase in cytotoxicity | cytotoxic effect of both chemotherapeutic agents is increased | absence of any independent increase in cytotoxicity |
| O=C1CC[C@@]2(O)[C@H]3Cc4ccc(O)c5c4[C@@]2(CCN3CC2CC2)[C@H]1O5 [naltrexone, reference compound] | increase the level of expression of ORPK1 | down-regulates the level of expression of OPRK1 |  |  |  |  |
